From patent US7994127B2, “Treatment of rett syndrome” (Massachusetts Institute of Technology, priority 2007, dated 2011)

Legend:
[1] = system: visual cortex of adult MeCP2+/− mice; experiment: Ocular dominance plasticity after monocular deprivation, optical imaging of intrinsic signals; type: in vivo, mouse; details: 180 μg/kg/day i.p. starting at 2 weeks; P60 MeCP2 KO mice
[2] = in vivo; cited from earlier work
[3] = system: rat hippocampal cultures; details: Ramsey et al., 2005; Xing et al., 2007; cited from earlier work
[4] = system: synaptic transmission; experiment: Synaptic transmission during direct application of the molecules; type: cell-based, mouse; details: direct application of the molecule
Excerpt: rhIGF1 produced a similar improvement as (1-3)IGF-1 in all maturational signatures measured, including (A) synaptic transmission levels, and (B) circuit stability (by preventing ocular dominance plasticity) in P60 MeCP2 KO mice.
The above data focused on the (1-3)IGF-1 fragment of IGF1 to promote IGF1 signaling. We also have tested the effect of the full-length IGF1 peptide already approved for pediatric administration in human patients (for short stature indications). We have verified a correspondence in the effects of (1-3)IGF-1 and recombinant human IGF1 (rhIGF1).

Molecule: rhIGF1: full-length IGF1 peptide already approved for pediatric administration in human patients; recombinant human IGF1
- maturation of cortical circuitry during ocular dominance plasticity (FIG. 9B) [1]: promoted to similar degrees
- crossing the blood-brain barrier [2]: capable of crossing the blood-brain barrier
- excitatory postsynaptic currents [3]: elevate excitatory postsynaptic currents significantly
- synaptic activity / synaptic transmission levels (FIG. 9A) [4]: striking enhancements of synaptic activity

B1: BDNF: brain derived neurotrophic factor (protein, UniProt P23560 19-247, looked up)
Neurotrophic factor BDNF …: APMKEANIRGQGGLAYPGVRTHGTLESVNGPKAGSRGLTSLADTFEHVIEELLDEDQKVRPNEENNKDADLYTSRVMLSSQVPLEPPLLFLLEEYKNYLDAANMSMRVRRHSDPARRGELSVCDSISEWVTAADKKTAVDMSGGTVTVLEKVPVSKGQLKQYFYETKCNPMGYTKEGCRGIDKRHWNSQCRTTQSYVRALTMDSKKRIGWRFIRIDTSCVCTLTIKRGR
- crossing the blood-brain barrier [2]: poor efficiency at crossing the blood brain barrier
